Experimental data as given in publication PMC6321230, “Metabolic Stability and Metabolite Characterization of Capilliposide B and Capilliposide C by LC–QTRAP–MS/MS” (Pharmaceutics, 2018).

Assays:
[1] = Metabolic stability in mouse liver microsomes; conditions: for in vitro t1/2 in mouse liver microsomes: MLM 0.5 mg/mL, NADPH, 37 °C, substrate 1.0 μM (midazolam 0.5 μM)
[2] = Metabolic stability in human liver microsomes; conditions: pH 7.4
[3] = Metabolic stability in rat liver microsomes; conditions: pH 7.4
[4] = design: method as in PMID 26678180; conditions: cited from earlier work
ovarian carcinoma A-2780 = tested on: ovarian carcinoma A-2780; design: method as in PMID 16595968, PMID 24554216; conditions: cited from earlier work
prostate cancer PC3 = tested on: prostate cancer PC3; design: method as in PMID 16595968, PMID 24554216; conditions: cited from earlier work
DU145 cells = tested on: DU145 cells; design: method as in PMID 16595968, PMID 24554216; conditions: cited from earlier work
[5] = tested on: esophageal squamous carcinoma cells; design: method as in PMID 28463955; conditions: cotreatment of LC-C and oxaliplatin; cited from earlier work
[6] = mouse, microsomes
[7] = design: method as in PMID 24313264; conditions: oral administration; cited from earlier work
HepG2 cells = tested on: HepG2 cells; design: method as in PMID 26678180; conditions: cited from earlier work
[8] = design: method as in PMID 27859436; conditions: mouse, after intravenous dosing of LC-B; cited from earlier work
[9] = design: method as in PMID 27521984; conditions: intravenous administration; cited from earlier work

| Compound | half-life at 0.5 μM ([1]; mouse, microsomes, pH 7.4) [min] | half-life at 0.5 μM [2] [min] | half-life at 0.5 μM [3] [min] | fraction metabolized in intestinal microflora [4] [%] | in vitro t1/2 in mouse liver microsomes [1] [min] | cytotoxicity against A-2780 (ovarian carcinoma A-2780) | cytotoxicity against PC3 (prostate cancer PC3) | cytotoxicity against DU145 (DU145 cells) | chemosensitizing effect of cotreatment with oxaliplatin [5] | degradation in MLM regardless of the presence of NADPH [6] | degradation in MLM with esterase inhibitor dichlorvos [6] | bioavailability [7] | exposure in tissues [7] | cytotoxicity against HepG2 cells (HepG2 cells) | main site of tissue distribution [8] | recovery in rat excreta [9] |
| --- | --- | --- | --- | --- | --- | --- | --- | --- | --- | --- | --- | --- | --- | --- | --- | --- |
| Cc1ncc2n1-c1ccc(Cl)cc1C(c1ccccc1F)=NC2 [midazolam, Midazolam] | 3.85 | 3.73 | 2.35 | – | – | – | – | – | – | – | – | – | – | – | – | – |
| CC1(C)C[C@H](O[C@@H]2O[C@H](CO)[C@@H](O)[C@H](O)[C@H]2O)[C@@]23[C@H](O)C[C@]4(C)[C@@](CC[C@@H]5[C@@]6(C)CC[C@H](O[C@@H]7OC[C@H](O[C@@H]8O[C@H](CO)[C@@H](O)[C@H](O)[C@H]8O[C@@H]8OC[C@@H](O)[C@H](O)[C@H]8O)[C@H](O)[C@H]7O[C@@H]7O[C@H](CO)[C@@H](O)[C@H](O)[C@H]7O)C(C)(C)[C@@H]6CC[C@]54C)(O[C@@H]2O)[C@@H]3C1 [LC-C, Capilliposide C] | – | – | – | 92.7 | 63.0 | significant cytotoxicities | significant cytotoxicities | significant cytotoxicities | chemosenstizing effect | obvious degradation | remarkably inhibited | poor bioavailability | low exposure in tissues | – | – | – |
| CC1(C)C[C@@H]2[C@@]3([C@H](O)C[C@]4(C)[C@@]2(CC[C@@H]2[C@@]5(C)CC[C@H](O[C@@H]6OC[C@H](O[C@@H]7O[C@H](CO)[C@@H](O)[C@H](O)[C@H]7O[C@@H]7OC[C@@H](O)[C@H](O)[C@H]7O)[C@H](O)[C@H]6O[C@@H]6O[C@H](CO)[C@@H](O)[C@H](O)[C@H]6O)C(C)(C)[C@@H]5CC[C@]24C)O[C@@H]3O)[C@@H](O)C1 [LC-A, Capilliposide A] | – | – | – | – | – | – | – | – | – | – | – | – | – | significant cytotoxicity | mainly distributed in mouse liver | – |
| CCCCCC(=O)O[C@H]1CC(C)(C)C[C@@H]2[C@@]13[C@H](O)C[C@]1(C)[C@@]2(CC[C@@H]2[C@@]4(C)CC[C@H](O[C@@H]5OC[C@H](O[C@@H]6O[C@H](CO)[C@@H](O)[C@H](O)[C@H]6O[C@@H]6OC[C@@H](O)[C@H](O)[C@H]6O)[C@H](O)[C@H]5O[C@@H]5O[C@H](CO)[C@@H](O)[C@H](O)[C@H]5O)C(C)(C)[C@@H]4CC[C@]21C)O[C@H]3O [LC-B, Capilliposide B] | – | – | – | – | 27.7 | significant cytotoxicities | significant cytotoxicities | significant cytotoxicities | – | obvious degradation | remarkably inhibited | poor bioavailability | low exposure in tissues | – | – | less than 10% |
